Source: patent US8278452B2, “Heterocyclic compounds and compositions as c-kit and PDGFR kinase inhibitors” (IRM LLC, priority 2008, dated 2012)

What follows are compounds tested on Mo7e cells which endogenously express c-kit (assay: Mo7e assay: inhibition of SCF dependent proliferation (MTT)). Conditions: Table 1; SCF stimulated Mo7e cells, 48 hours, MTT.
Type: cell-based
Protocol: The compounds described herein are tested for inhibition of SCF dependent proliferation using Mo7e cells which endogenously express c-kit in a 96 well format. Two-fold serially diluted test compounds (Cmax=10 μM) are evaluated for their antiproliferative activity of Mo7e cells stimulated with human recombinant SCF. After 48 hours of incubation at 37° C., cell viability is measured by using a MTT colorimetric assay from Promega. IC50 values for compounds of the invention are quoted in table 1, supra.
`Cc1cc2c(cn1)cc(-c1cc(Nc3noc(C(O)C(C)C)n3)ccc1C)c(=O)n2C` (stereo not shown) [Compound A64, 3-(5-(5-(1-hydroxy-2-methylpropyl)-1,2,4-oxadiazol-3-ylamino)-2-methylphenyl)-1,7-dimethyl-1,6-naphthyridin-2(1H)-one] showed an IC50 of 118 nM. For `Cc1cc2c(cn1)cc(-c1cc(Nc3noc(C4(C)COC4)n3)ccc1C)c(=O)n2C` [Compound A65, 1,7-dimethyl-3-(2-methyl-5-{[5-(3-methyloxetan-3-yl)-1,2,4-oxadiazol-3-yl]amino}phenyl)-1,2-dihydro-1,6-naphthyridin-2-one], the IC50 was 413 nM. For `Cc1cc2c(cn1)cc(-c1cc(Nc3noc(C4CCO4)n3)ccc1C)c(=O)n2C` (stereo not shown) [Compound A66, 1,7-dimethyl-3-(2-methyl-5-{[5-(oxetan-2-yl)-1,2,4-oxadiazol-3-yl]amino}phenyl)-1,2-dihydro-1,6-naphthyridin-2-one], the IC50 was 143 nM. Compound `Cc1cc2c(cn1)cc(-c1cc(Nc3noc(C(C)CO)n3)ccc1C)c(=O)n2C` (stereo not shown) [Compound A67, 3-(5-(5-(1-hydroxypropan-2-yl)-1,2,4-oxadiazol-3-ylamino)-2-methylphenyl)-1,7-dimethyl-1,6-naphthyridin-2(1H)-one] has an IC50 of 299 nM. Compound `Cc1cc2c(cn1)cc(-c1cc(Nc3noc(CC(C)C)n3)ccc1C)c(=O)n2C` [Compound A68, 3-(5-(5-isobutyl-1,2,4-oxadiazol-3-ylamino)-2-methylphenyl)-1,7-dimethyl-1,6-naphthyridin-2(1H)-one] has an IC50 of 128 nM. For `Cc1cc2c(cn1)cc(-c1cc(Nc3noc(C4(CO)CC4)n3)ccc1C)c(=O)n2C` [Compound A69, 3-(5-(5-(1-(hydroxymethyl)cyclopropyl)-1,2,4-oxadiazol-3-ylamino)-2-methylphenyl)-1,7-dimethyl-1,6-naphthyridin-2(1H)-one], the IC50 was 148 nM. Compound `Cc1cc2c(cn1)cc(-c1cc(Nc3noc(-c4cnccn4)n3)ccc1C)c(=O)n2C` [Compound A70, 1,7-dimethyl-3-(2-methyl-5-{[5-(pyrazin-2-yl)-1,2,4-oxadiazol-3-yl]amino}phenyl)-1,2-dihydro-1,6-naphthyridin-2-one] has an IC50 of 211 nM. For `Cc1cnc(-c2nc(Nc3ccc(C)c(-c4cc5cnc(C)cc5n(C)c4=O)c3)no2)cn1` [Compound A71, 1,7-dimethyl-3-(2-methyl-5-{[5-(5-methylpyrazin-2-yl)-1,2,4-oxadiazol-3-yl]amino}phenyl)-1,2-dihydro-1,6-naphthyridin-2-one], the IC50 was 424 nM. `Cc1cc2c(cn1)cc(-c1cc(Nc3noc(C4CC(=O)C4)n3)ccc1C)c(=O)n2C` [Compound A72, 1,7-dimethyl-3-(2-methyl-5-{[5-(3-oxocyclobutyl)-1,2,4-oxadiazol-3-yl]amino}phenyl)-1,2-dihydro-1,6-naphthyridin-2-one] gave an IC50 of 204 nM. With `Cc1cc2c(cn1)cc(-c1cc(Nc3noc(C4CCC(O)C4)n3)ccc1C)c(=O)n2C` (stereo not shown) [Compound A73, 3-(5-(5-(3-hydroxycyclopentyl)-1,2,4-oxadiazol-3-ylamino)-2-methylphenyl)-1,7-dimethyl-1,6-naphthyridin-2(1H)-one] the IC50 was 178 nM. `CCOCc1nc(Nc2ccc(C)c(-c3cc4cnc(C)cc4n(C)c3=O)c2)no1` [Compound A74, 3-(5-{[5-(ethoxymethyl)-1,2,4-oxadiazol-3-yl]amino}-2-methylphenyl)-1,7-dimethyl-1,2-dihydro-1,6-naphthyridin-2-one] gave an IC50 of 296 nM. Work on `Cc1cc2c(cn1)cc(-c1cc(Nc3noc([C@H]4CCCO4)n3)ccc1C)c(=O)n2C` [Compound A75, 1,7-dimethyl-3-[2-methyl-5-({5-[(2R)-oxolan-2-yl]-1,2,4-oxadiazol-3-yl}amino)phenyl]-1,2-dihydro-1,6-naphthyridin-2-one] yielded an IC50 of 40 nM. Work on `CO[C@@H](C)c1nc(Nc2ccc(C)c(-c3cc4cnc(C)cc4n(C)c3=O)c2)no1` [Compound A76, (S)-3-(5-(5-(1-methoxyethyl)-1,2,4-oxadiazol-3-ylamino)-2-methylphenyl)-1,7-dimethyl-1,6-naphthyridin-2(1H)-one] yielded an IC50 of 142 nM. Work on `Cc1cc2c(cn1)cc(-c1cc(Nc3noc([C@@H]4CCCO4)n3)ccc1C)c(=O)n2C` [Compound A77, (S)-1,7-dimethyl-3-(2-methyl-5-(5-(tetrahydrofuran-2-yl)-1,2,4-oxadiazol-3-ylamino)phenyl)-1,6-naphthyridin-2(1H)-one] yielded an IC50 of 27 nM. With `Cc1cc2c(cn1)cc(-c1cc(Nc3noc(C4CCOC4)n3)ccc1C)c(=O)n2C` (stereo not shown) [Compound A78, 1,7-dimethyl-3-(2-methyl-5-{[5-(oxolan-3-yl)-1,2,4-oxadiazol-3-yl]amino}phenyl)-1,2-dihydro-1,6-naphthyridin-2-one] the IC50 was 120 nM. `Cc1cc2c(cn1)cc(-c1cc(Nc3noc(-c4ncccc4C)n3)ccc1C)c(=O)n2C` [Compound A79, 1,7-dimethyl-3-(2-methyl-5-{[5-(3-methylpyridin-2-yl)-1,2,4-oxadiazol-3-yl]amino}phenyl)-1,2-dihydro-1,6-naphthyridin-2-one] was tested, and the IC50 was 94 nM. `COc1cc(C)ccc1-c1nc(Nc2ccc(C)c(-c3cc4cnc(C)cc4n(C)c3=O)c2)no1` [Compound A80, 3-(5-{[5-(2-methoxy-4-methylphenyl)-1,2,4-oxadiazol-3-yl]amino}-2-methylphenyl)-1,7-dimethyl-1,2-dihydro-1,6-naphthyridin-2-one] gave an IC50 of 338 nM. `Cc1cc2c(cn1)cc(-c1cc(Nc3noc(-c4ccc(F)cc4Cl)n3)ccc1C)c(=O)n2C` [Compound A81, 3-(5-{[5-(2-chloro-4-fluorophenyl)-1,2,4-oxadiazol-3-yl]amino}-2-methylphenyl)-1,7-dimethyl-1,2-dihydro-1,6-naphthyridin-2-one] gave an IC50 of 237 nM. For `Cc1cc2c(cn1)cc(-c1cc(Nc3noc(-c4ccc(Cl)cc4Cl)n3)ccc1C)c(=O)n2C` [Compound A82, 3-(5-{[5-(2,4-dichlorophenyl)-1,2,4-oxadiazol-3-yl]amino}-2-methylphenyl)-1,7-dimethyl-1,2-dihydro-1,6-naphthyridin-2-one], the IC50 was 262 nM. In the case of `Cc1cc2c(cn1)cc(-c1cc(Nc3noc(C4CC(O)C4)n3)ccc1C)c(=O)n2C` (stereo not shown) [Compound A83, 3-(5-{[5-(3-hydroxycyclobutyl)-1,2,4-oxadiazol-3-yl]amino}-2-methylphenyl)-1,7-dimethyl-1,2-dihydro-1,6-naphthyridin-2-one], the IC50 is reported as 251 nM. Work on `Cc1cc2c(cn1)cc(-c1cc(Nc3noc(C4CC(C)(O)C4)n3)ccc1C)c(=O)n2C` (stereo not shown) [Compound A84, 3-(5-{[5-(3-hydroxy-3-methylcyclobutyl)-1,2,4-oxadiazol-3-yl]amino}-2-methylphenyl)-1,7-dimethyl-1,2-dihydro-1,6-naphthyridin-2-one] yielded an IC50 of 176 nM. For `Cc1cc2c(cn1)cc(-c1cc(Nc3noc(C4CCCCO4)n3)ccc1C)c(=O)n2C` (stereo not shown) [Compound A85, 1,7-dimethyl-3-(2-methyl-5-{[5-(oxan-2-yl)-1,2,4-oxadiazol-3-yl]amino}phenyl)-1,2-dihydro-1,6-naphthyridin-2-one], the IC50 was 79 nM. `Cc1ccc(Nc2noc(-c3ccccc3)n2)cc1-c1cc2c[n+]([O-])c(C)cc2n(C)c1=O` [Compound A86, 1,7-dimethyl-3-{2-methyl-5-[(5-phenyl-1,2,4-oxadiazol-3-yl)amino]phenyl}-6-oxido-2-oxo-1,2-dihydro-1,6-naphthyridin-6-ium] was tested, and the IC50 was 216 nM. `COc1ccc(-c2nc(Nc3ccc(C)c(-c4cc5cnc(C)cc5n(C)c4=O)c3)no2)cn1` [Compound A87, 3-(5-{[5-(6-methoxypyridin-3-yl)-1,2,4-oxadiazol-3-yl]amino}-2-methylphenyl)-1,7-dimethyl-1,2-dihydro-1,6-naphthyridin-2-one] showed an IC50 of 95 nM. `Cc1cc2c(cn1)cc(-c1cc(Nc3noc(-c4ccc(C(C)(F)F)nc4)n3)ccc1C)c(=O)n2C` [Compound A88, 3-[5-({5-[6-(1,1-difluoroethyl)pyridin-3-yl]-1,2,4-oxadiazol-3-yl}amino)-2-methylphenyl]-1,7-dimethyl-1,2-dihydro-1,6-naphthyridin-2-one] was tested, and the IC50 was 259 nM. Compound `Cc1cc2c(cn1)cc(-c1cc(Nc3noc(-c4ccc(C(C)(F)F)cc4)n3)ccc1C)c(=O)n2C` [Compound A89, 3-[5-({5-[4-(1,1-difluoroethyl)phenyl]-1,2,4-oxadiazol-3-yl}amino)-2-methylphenyl]-1,7-dimethyl-1,2-dihydro-1,6-naphthyridin-2-one] has an IC50 of 217 nM. With `Cc1cc2c(cn1)cc(-c1cc(Nc3noc(-c4ccc(CN)cc4)n3)ccc1C)c(=O)n2C` [Compound A90, 3-[5-({5-[4-(aminomethyl)phenyl]-1,2,4-oxadiazol-3-yl}amino)-2-methylphenyl]-1,7-dimethyl-1,2-dihydro-1,6-naphthyridin-2-one] the IC50 was 434 nM. Work on `Cc1cc2c(cn1)cc(-c1cc(Nc3noc(-c4cccnc4F)n3)ccc1C)c(=O)n2C` [Compound A91, 3-(5-{[5-(2-fluoropyridin-3-yl)-1,2,4-oxadiazol-3-yl]amino}-2-methylphenyl)-1,7-dimethyl-1,2-dihydro-1,6-naphthyridin-2-one] yielded an IC50 of 244 nM. Compound `CC(=O)c1ccccc1-c1nc(Nc2ccc(C)c(-c3cc4cnc(C)cc4n(C)c3=O)c2)no1` [Compound A94, 3-(5-{[5-(2-acetylphenyl)-1,2,4-oxadiazol-3-yl]amino}-2-methylphenyl)-1,7-dimethyl-1,2-dihydro-1,6-naphthyridin-2-one] has an IC50 of 258 nM. For `CC(=O)c1ccc(-c2nc(Nc3ccc(C)c(-c4cc5cnc(C)cc5n(C)c4=O)c3)no2)cc1` [Compound A95, 3-(5-{[5-(4-acetylphenyl)-1,2,4-oxadiazol-3-yl]amino}-2-methylphenyl)-1,7-dimethyl-1,2-dihydro-1,6-naphthyridin-2-one], the IC50 was 310 nM. With `Cc1cc2c(cn1)cc(-c1cc(Nc3noc(C(C)Oc4ccccc4)n3)ccc1C)c(=O)n2C` (stereo not shown) [Compound A96, 1,7-dimethyl-3-(2-methyl-5-{[5-(1-phenoxyethyl)-1,2,4-oxadiazol-3-yl]amino}phenyl)-1,2-dihydro-1,6-naphthyridin-2-one] the IC50 was 419 nM.
